Source: patent publication US8778987B2, “Use of 4-hydroxychalcone derivatives for masking an unpleasant taste” (Symrise AG, priority 2008, dated 2014)

Assays:
Type in all cases: in vivo
[1] = test system: bitter impression of aqueous caffeine solution; test: Reducing bitterness of a bitter substance solution, rated by a panel of experts (caffeine); settings: 500 ppm caffeine; for Bitter impression (1-10) with: error = 95% confidence range
Description: (§1) In order to quantify the reduction in the bitter impression, the bitterness of an aqueous bitter substance solution and a sample containing the same quantity of bitter substance and a varying quantity of the exemplary compound, was determined by a panel of experts (rating 0 [not bitter] to 10 [extremely bitter]). Evaluation took place by calculating the reduction (in %) in the bitter impression from the average values of the assessments of the bitter substance solution or the solutions containing bitter substance and exemplary compound. […] (2,4-DHB) was used as a comparison from U.S. Pat. No. 5,643,941.

[2] = test system: bitter impression of aqueous salicin solution; test: Reducing bitterness of a bitter substance solution, rated by a panel of experts (salicin); settings: 30 ppm substance, 250 ppm salicin
Description: as §1

[3] = test system: taste impressions of meat stock with 0.4 wt. % sodium chloride and 0.4 wt. % potassium chloride; test: Reduction in unpleasant taste impressions of potassium chloride-containing meat stock (triangle difference testing); settings: 30 ppm
Description: A fat- and common salt-free meat stock is prepared with 0.4 wt. % sodium chloride and 0.4 wt. % potassium chloride (in each case relative to total weight) (comparison solution A). The same solution is prepared again and a quantity of phloretin (compound 4 from Example 1) is added. Solution A is served up to the testers once with the designation “standard solution”, and at the same time solution A and solution B are served up as “test solution 1” or “test solution 2” in a random order unknown to the respective tester (i.e. solutions A and B may have different designations for different testers; each tester has to test three solutions). In a first test phase, the testers are asked whether one of the three solutions tastes different from the other two (triangle difference testing). If the response to this question is “No”, the test is stopped for that tester. If the response to this question is “Yes”, the tester has to quantify the flavor qualities, listed below, of “test solution 1” or “test solution 2” deviating from the “standard solution” (relative to the “standard solution”, 0 flavor quality identical to the standard, −4 very much weaker than the standard, +4 very much stronger than the standard). Taking as basis the results from all the testers, the average of all deviations from the “standard solution” is calculated for the individual flavor qualities.

[4] = test system: bitter impression of aqueous quinine hydrochloride solution; test: Reducing bitterness of a bitter substance solution, rated by a panel of experts (quinine hydrochloride); settings: 30 ppm substance, 5 ppm quinine hydrochloride
Description: as §1

| SMILES | % reduction in bitter impression ([1]; 100 ppm substance) | Tester positive (number of testers who were able to identify masking) ([1]; 100 ppm substance, 15 testers total) | Bitter impression (1-10) with ([1]; 100 ppm substance) | % reduction in bitter impression ([1]; 50 ppm substance) | Tester positive (number of testers who were able to identify masking) ([1]; 50 ppm substance) | Bitter impression (1-10) with ([1]; 50 ppm substance) | % reduction in bitter impression [2] | Tester positive (number of testers who were able to identify masking) ([2]; 15 testers total) | Bitter impression (1-10) with ([2]; error = 95% confidence range) | Positive testers ([3]; of 21 testers, triangle difference testing) | Aromaticity, average deviation from standard solution ([3]; scale −4 to +4) | Bitter, average deviation from standard solution ([3]; scale −4 to +4) | Mouth fullness, average deviation from standard solution ([3]; scale −4 to +4) | Sour, average deviation from standard solution ([3]; scale −4 to +4) | Sweet, average deviation from standard solution ([3]; scale −4 to +4) | Salty, average deviation from standard solution ([3]; scale −4 very much weaker to +4 very much stronger than the standard) | % reduction in bitter impression [4] | Tester positive (number of testers who were able to identify masking) ([4]; 15 testers total) | Bitter impression (1-10) with ([4]; error = 95% confidence range) |
| --- | --- | --- | --- | --- | --- | --- | --- | --- | --- | --- | --- | --- | --- | --- | --- | --- | --- | --- | --- |
| O=C(O)c1ccc(O)cc1O [2,4-DHB, 2,4-dihydroxybenzoic acid, reference compound] | 3%, n.s. | 9 | 5.0 ± 1.0 | – | – | – | – | – | – | – | – | – | – | – | – | – | – | – | – |
| O=C(CCc1ccc(O)cc1)c1c(O)cc(O)cc1O [Compound 4, 3-(4-hydroxyphenyl)-1-(2,4,6-trihydroxy-phenyl)propan-1-one] | – | – | – | 28%, p < 0.05 | 13 | 3.9 ± 1.8 | 18%, p < 0.1 | 10 | 6.0 ± 1.8 | 16 (p < 0.05) | −0.1 | −0.4 | 0.3 | 0.1 | 0.9 | −0.7 | 25%, n.s. | 10 | 2.0 ± 1.4 |
